# Measured values published in PMC10298530, “Synthesis and Anticancer Activity of A-Ring-Modified Derivatives of Dihydrobetulin” (International Journal of Molecular Sciences, 2023).
# Read-outs that look alike come from different tables or passages of the source.
# Assays:
# [1] = tested on: human cancer cell lines; assay: MTT assay, panel of cancer cell lines
# Protocol: In this study, the human embryonic kidney cell line HEK293 was used as the non-cancerous cell line.
# To investigate the cytotoxic activity of the compounds under study, the MTT colorimetric assay [45] was performed. […] After 72 h, 20 μL of 5 mg/mL solution of MTT (PanEco, Moscow, Russia), in sterile phosphate-buffered saline (PBS; PanEco, Moscow, Russia), was added to each well and further incubated for 4 h. Then, the medium with the compounds was removed, and the formed formazan crystals were dissolved in 100 μL of DMSO. […] The IC50 values were determined from dose-dependent curves, using Prism 6.0 (GraphPad Software, Boston, MA, USA).
# [2] = tested on: RD TE32; assay: MTT cell viability assay, RD TE32; assay type: cell-based, human; conditions: for IC50: Homo sapiens
# Source text: (§1) Blokhin National Medical Research Center of Oncology (the Ministry of Health of the Russian Federation, Moscow).
# [3] = tested on: MS; assay: MTT cell viability assay, MS; assay type: cell-based, human; conditions: for IC50: Homo sapiens;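 for IC50 (mean ± SD): MS is a melanocyte cell line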
# Source text: as §1
# [4] = tested on: HBL-100/Dox; assay: MTT cell viability assay, HBL-100/Dox; assay type: cell-based, human; conditions: for IC50: Homo sapiens
# Protocol: (§2) The cells were cultured in a humidified CO2 incubator (model 460-CE; Thermo Fisher Scientific, Waltham, MA, USA) at +37 °C and 5% CO2.
# (§3) The percentage of the viable cells was calculated according to the following equation: cell viability (%) = 100 × (mean absorbance in the treatment group/mean absorbance in the control group). The results were expressed pictorially using Prism 6.0 (GraphPad Software, Boston, MA, USA).
# [5] = tested on: HEK293; assay: MTT cell viability assay, HEK293; assay type: cell-based; conditions: Homo sapiens
# Source text: as §1
# [6] = tested on: HCT116; assay: MTT cell viability assay, HCT116; assay type: cell-based, human; conditions: for IC50: Homo sapiens, HCT-116
# Source text: as §1
# [7] = tested on: A549; assay: MTT cell viability assay, A549; assay type: cell-based, human; conditions: for IC50: Homo sapiens
# Source text: as §1
# [8] = tested on: MCF-7; assay: MTT cell viability assay, MCF-7; assay type: cell-based, human; conditions: for IC50: Homo sapiens, MCF7
# Source text: as §1
# [9] = tested on: PC-3; assay: MTT cell viability assay, PC-3; assay type: cell-based, human; conditions: for IC50: Homo sapiens
# Source text: as §1
# [10] = tested on: HBL-100; assay: MTT cell viability assay, HBL-100; assay type: cell-based, human; conditions: for IC50: Homo sapiens
# Protocol: as §2, §3
# [11] = tested on: HEpG2; assay: MTT cell viability assay, HEpG2; assay type: cell-based, human; conditions: for IC50: Homo sapiens
# Source text: as §1
# [12] = Table S1, RD TE32, read-out: IC50 (mean ± SD)
# [13] = Table S1, MS, read-out: IC50 (mean ± SD)
# [14] = HBL-100, read-out: IC50 (mean ± SD)
# [15] = Table S1, HEK293, read-out: IC50 (mean ± SD)
# [16] = Table S1, A549, read-out: IC50 (mean ± SD)
# [17] = Table S1, MCF-7, read-out: IC50 (mean ± SD)
# [18] = Table S1, PC-3, read-out: IC50 (mean ± SD)
# [19] = Table S1, HBL-100, read-out: IC50 (mean ± SD)
# [20] = Table S1, HCT116, read-out: IC50 (mean ± SD)
# [21] = Table S1, HEpG2, read-out: IC50 (mean ± SD)
smiles,measurement,setting,value
"COC(=O)[C@]12CCC(C(C)C)C1C1CCC3[C@@](C)(CCC#N)C(C(=O)CBr)CC[C@@]3(C)[C@]1(C)CC2 (stereo partly drawn) [compound 30, 24-Bromo-2-cyano-4-oxo-3,4-seco-3,23-dinorlupan-28-oic acid methyl ester]",IC50,"[1]; Homo sapiens, read-out: cytotoxic values (range)",3.6 to 13.5 µM
same,cytotoxicity in the screening studies,"[1]; MTT screening, Table S1",relatively weak or moderate cytotoxicity
same,IC50,"[2]; RD TE32, MTT, 72 h of treatment, read-out: IC50 Values (Mean ± SD)",7.1 ± 0.9 µM
same,IC50,[2]; [12],7.05 ± 0.91 µM
same,Selectivity index (SI),[2]; ratio of IC50 values healthy (HEK293) / RD TE32,3.41
same,IC50,"[3]; MS, MTT, 72 h of treatment, read-out: IC50 Values (Mean ± SD)",45.9 ± 2.2 µM
same,IC50,[3]; [13],46 ± 2.2 µM
same,Selectivity index (SI),[3]; ratio of IC50 values healthy (HEK293) / MS,0.53
same,IC50,"[4]; HBL-100, 72 h, read-out: IC50 Values (Mean ± SD)",4.5 ± 0.2 µM
same,IC50,[4]; [14],4.53 ± 0.21 µM
same,Selectivity index (SI),[4]; ratio of IC50 values healthy (HEK293) / HBL-100/Dox,5.37
same,IC50,"[5]; HEK293, MTT, 72 h of treatment, read-out: IC50 Values (Mean ± SD)",24.2 ± 0.5 µM
same,IC50,[5]; [15],24.2 ± 0.45 µM
same,IC50,"[6]; HCT116, MTT, 72 h of treatment, read-out: IC50 Values (Mean ± SD)",13.5 ± 0.3 µM
same,Selectivity index (SI),[6]; ratio of IC50 values healthy (HEK293) / HCT116,1.79
same,IC50,"[7]; A549, MTT, 72 h of treatment, read-out: IC50 Values (Mean ± SD)",27.7 ± 0.3 µM
same,IC50,[7]; [16],27.7 ± 0.31 µM
same,Selectivity index (SI),[7]; ratio of IC50 values healthy (HEK293) / A549,0.87
same,melting point,,124.4 °C
same,IC50,"[8]; MCF-7, MTT, 72 h of treatment, read-out: IC50 Values (Mean ± SD)",12 ± 0.1 µM
same,IC50,[8]; [17],12.04 ± 0.06 µM
same,Selectivity index (SI),[8]; ratio of IC50 values healthy (HEK293) / MCF-7,2.02
same,IC50,"[9]; PC-3, MTT, 72 h of treatment, read-out: IC50 Values (Mean ± SD)",34 ± 1.3 µM
same,IC50,[9]; [18],34.1 ± 1.28 µM
same,Selectivity index (SI),[9]; ratio of IC50 values healthy (HEK293) / PC-3,0.71
same,IC50,"[10]; HBL-100, MTT, 72 h of treatment, read-out: IC50 Values (Mean ± SD)",3.6 ± 0.3 µM
same,IC50,[10]; [19],3.62 ± 0.33 µM
same,Selectivity index (SI),[10]; ratio of IC50 values healthy (HEK293) / HBL-100,6.72
same,IC50,"[11]; HEpG2, MTT, 72 h of treatment, read-out: IC50 Values (Mean ± SD)",49.6 ± 0.5 µM
same,Selectivity index (SI),[11]; ratio of IC50 values healthy (HEK293) / HEpG2,0.49
"COC(=O)[C@]12CCC(C(C)C)C1C1CCC3[C@@]4(C)CC(C#N)=CC(=O)C4CC[C@@]3(C)[C@]1(C)CC2 (stereo partly drawn) [compound 15, 2-Cyano-4-oxo-3,4-seco-3,23-dinor-2,24-cyclolup-2(24)-en-28-oic acid methyl ester]",IC50,[2]; [12],> 100 µM
same,IC50,[3]; [13],> 100 µM
same,IC50,[4]; [14],> 100 µM
same,IC50,[5]; [15],> 100 µM
same,IC50,[6]; [20],> 100 µM
same,IC50,[7]; [16],> 100 µM
same,melting point,,69.7 °C
same,IC50,[8]; [17],> 100 µM
same,IC50,[9]; [18],> 100 µM
same,IC50,[10]; [19],> 100 µM
same,IC50,[11]; [21],> 100 µM
"C=C1C2CC[C@]3(C)C(CCC4C5C(C(C)C)CC[C@]5(CO)CC[C@]43C)[C@@]2(C)C[C@@H](C#N)[C@@H]1O (stereo partly drawn) [compound 9, 2-Cyano-24β,28-dihydroxy-3,4-seco-3-nor-2,24-cyclolup-4(23)-ene]",IC50,[2]; [12],> 100 µM
same,IC50,[3]; [13],> 100 µM
same,IC50,[4]; [14],> 100 µM
same,IC50,[5]; [15],> 100 µM
same,IC50,[6]; [20],> 100 µM
same,IC50,[7]; [16],> 100 µM
same,melting point,,170.1 °C
same,IC50,[8]; [17],> 200 µM
same,IC50,[9]; [18],> 100 µM
same,IC50,[10]; [19],> 200 µM
same,IC50,[11]; [21],> 100 µM
"CC1=C(C#N)C[C@@]2(C)C1CC[C@]1(C)C2CCC2C3C(C(C)C)CC[C@]3(CO)CC[C@]21C (stereo partly drawn) [compound 22, 2-Cyano-28-hydroxy-3,4-seco-3,23-dinor-2,4-cyclolup-2(4)-ene]",IC50,[2]; [12],84.7 ± 3.68 µM
same,IC50,[3]; [13],> 100 µM
same,IC50,[4]; [14],> 100 µM
same,IC50,[5]; [15],> 100 µM
same,IC50,[6]; [20],74.2 ± 2.56 µM
same,IC50,[7]; [16],> 200 µM
same,melting point,,184.2 °C
same,IC50,[8]; [17],89.3 ± 3.01 µM
same,IC50,[9]; [18],36.5 ± 1.31 µM
same,IC50,[10]; [19],> 100 µM
same,IC50,[11]; [21],> 100 µM
